System: P. rhodozyma ATCC 96594
Assay: Growth of P. rhodozyma colonies on SHAM-containing YPD-agar
Assay type: cell-based, Phaffia rhodozyma
Settings: 3 day-cultivation at 20° C.; for Relative colony diameter (%): relative to control colonies without SHAM
Protocol: To examine the effects of the inhibition of KCN-resistant respiration mediated by alternative oxidase on the growth of P. rhodozyma, SHAM was added to a culture of P. rhodozyma on YPD-agar medium. SHAM was dissolved in ethanol and added to the YPD-agar medium to give 0.05, 0.15, 0.30, 0.45 and 0.90 mg/ml as a final concentration. After dilution, 2×10^7 cells/ml of P. rhodozyma ATCC 96594 were spread on the media. After a 3 day-cultivation at 20° C., colonies were counted. […] However, the colonies that grew on SHAM-containing media were smaller than the colonies that grew on the control media.

## O=C(NO)c1ccccc1O [SHAM, Salicylhydroxamic acid]
SHAM 0.05 mg/ml in YPD-agar
  Relative colony diameter (%): 100%
SHAM 0.15 mg/ml in YPD-agar
  Relative colony diameter (%): 70%
SHAM 0.30 mg/ml in YPD-agar
  Relative colony diameter (%): 40%
SHAM 0.45 mg/ml in YPD-agar
  Relative colony diameter (%): 30%
SHAM 0.90 mg/ml in YPD-agar
  Relative colony diameter (%): 12%
SHAM 0.05-0.90 mg/ml, compared with control medium without SHAM
  Number of colonies that grew on SHAM-containing YPD agar: almost the same as that on control medium

Reference: patent US6696293B2, “Process for producing carotenoids and biological materials useful therefor” (Roche Vitamins Inc., priority 2000, dated 2004)
